In patent US11298367B2, “Prodrugs of substituted triazole derivatives and uses thereof” (Bayer Aktiengesellschaft, priority 2017, dated 2022):
≈ marks a conversion by molar mass, not a printed value. Read-outs that look alike come from different tables or passages of the source.

Columns and labels:
Solubility = format: physicochemical; details: 24 h room temperature, max. 500 μg/ml; for solubility at 24 h: thermodynamic from solid
Protocol: For each substance 0.5-0.6 mg are weighed exactly. In each case, sufficient medium is added to the sample in such a way that a concentration of c=500 μg/ml is obtained. This sample solution is shaken for 24 h at room temperature and 1400 rpm.
A further sample weight of 0.5-0.6 mg is required for the DMSO calibration solution. This sample is filled with DMSO to a concentration of c=600 μg/ml. Two calibration solutions are prepared from this stock solution. In a 2 ml HPLC vial, 1000 μl of DMSO are initially introduced and 34.4 μl of the stock solution are pipetted (c=20 µg/ml). […] of this solution (c=20 μg/ml) are placed in a further 2 ml HPLC vial containing 500 μl of DMSO (c=2.5 μg/ml).
After shaking the test solutions, 230 μl of the supernatant are transferred into a centrifuge tube and centrifuged at 42 000 rpm (223 000 g) for 30 min. 180 μl of the supernatant are then taken and each diluted with DMSO (1:5 sample 1; 1:100 sample 2), and transferred to HPLC vials. The two calibration solutions and the dilute sample solutions are analyzed by HPLC. Quantification is performed over the corresponding peak areas.
Distilled water; trifluoroacetic acid (Merck; 1.08262.0100); acetonitrile (HPLC grade); DMSO (Merck; 8.02912.2500).
Fluka buffer, Order No. 33643 (11.76 g citric acid, 2.57 g sodium chloride and 2.72 g sodium hydroxide).
Fluka buffer, Order No. 33646 (3.52 g potassium dihydrogenphosphate, 7.26 g sodium hydrogen phosphate).
Solution of 6.18 g sodium chloride and 3.96 g sodium dihydrogen phosphate in 1 L distilled water, adjust with 1M aqueous sodium hydroxide solution to pH 7.4.
0.6057 g TRIS was dissolved in 95 ml water, adjust to pH 8.5 with aqueous hydrochloric acid, fill with water until 100 ml volume is reached.

human V1a receptor = target: T1, human V1a receptor (Homo sapiens, UniProt P37288); assay: Cellular in vitro assay for verification of prodrug conversion into drug (with/without alkaline phosphatase); format: cell-based; details: human V1a CHO cells
T1 construct: expressed in transfected cells; host or cells: CHO K1 (Chinese hamster ovary), also stably transfected with a modified aequorin
T1 sequence (P37288 whole entry): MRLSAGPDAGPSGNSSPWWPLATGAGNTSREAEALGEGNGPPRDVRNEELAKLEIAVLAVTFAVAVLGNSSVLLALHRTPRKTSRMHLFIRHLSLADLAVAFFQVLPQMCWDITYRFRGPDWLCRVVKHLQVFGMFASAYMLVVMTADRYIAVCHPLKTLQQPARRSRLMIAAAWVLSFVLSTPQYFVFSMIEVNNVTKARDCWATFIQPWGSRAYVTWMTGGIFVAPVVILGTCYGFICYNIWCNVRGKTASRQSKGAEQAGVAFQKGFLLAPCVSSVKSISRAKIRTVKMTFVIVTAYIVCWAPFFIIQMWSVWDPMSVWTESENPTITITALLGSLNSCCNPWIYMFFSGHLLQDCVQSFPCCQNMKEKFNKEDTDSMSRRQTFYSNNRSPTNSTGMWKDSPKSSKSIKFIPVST
Protocol: B-4. Cellular In Vitro Assay for Verification of Prodrug Conversion into Drug
To verify the conversion of prodrugs into the respective drugs, the prodrugs are incubated with and without alkaline phosphatase. Cleavage of the phosphate moiety by alkaline phosphatase converts the prodrug into the underlying respective drug [Coleman J. E., Annu. Rev. Biophys. Biomol. Struct. 1992, 21, 441-483]. As prodrug and underlying respective drug show different IC50 values, the value of the prodrug after alkaline phosphatase treatment resembles the IC50 of the respective drug. The determination of IC50 values of compounds of the invention at the human V1a receptor is carried out using a recombinant cell line. The cell line originally derives from a hamster's ovary epithelial cell (Chinese Hamster Ovary, CHO K1, ATCC: American Type Culture Collection, Manassas, Va. 20108, USA). The test cell line constitutively expresses the human V1a receptor. Cells are also stably transfected with a modified form of the calcium-sensitive photoprotein aequorin which, after reconstitution with the cofactor coelenterazine, emits light upon increase in free calcium concentration [Rizzuto R, Simpson A W, Brini M, Pozzan T, Nature 358, 325-327 (1992); Illarionov B A, Bondar V S, Illarionova V A, Vysotski E S, Gene 153 (2), 273-274 (1995)]. The resulting vasopressin receptor cell reacts to stimulation of the recombinantly expressed V1a receptor by intracellular release of calcium ions, which can be quantified by the resulting luminescence of photoprotein. The bioluminescence of the cell line is detected using a suitable luminometer [Milligan G, Marshall F, Rees S, Trends in Pharmacological Sciences 17, 235-237 (1996)].
On the day before the assay, the cells are seeded in culture medium (DMEM/F12, 2% FCS, 2 mM glutamine, 10 mM HEPES, 5 μg/ml coelenterazine) in 384-well microtiter plates and kept in a cell incubator (96% humidity, 5% v/v CO2, 37C). On the day of the assay, 100 μl of test compounds at a concentration of 100 μM are incubated for 15 minutes with 500 units alkaline phosphatase at 37° C. in tyrode buffer (20 mM HEPES, 130 mM NaCl, 5 mM KCl, 5 mM NaHCO3, 2 mM MgCl2, pH 7,4). After incubation compounds are immediately diluted and placed for 10 minutes at 37° C. on the before seeded V1a cells. For detection of antagonistic activity of the compounds [Arg^8]-vasopressin at EC50 concentration is added and the resulting light signal is measured immediately in a luminometer.

pH stability = format: physicochemical
Protocol: 0.15 mg of the test compound is dissolved in 0.1 ml dimethylsulfoxide and 0.4 ml acetonitrile. For complete dissolution the HPLC vial with the sample solution is shaken and treated with ultrasonic irradiation. Then 1.0 ml of the respective buffer solution is added and the sample is vortexed. The sample solution is analyzed by HPLC to determine the amount of the test compound at a particular time over a period of 24 h at 37° C. The peak areas in percentage are used for quantification.
pH 4.0: Fluka buffer, Order No. 33643 (11.76 g citric acid, 2.57 g sodium chloride and 2.72 g sodium hydroxide).
pH 7.4: 90 g of sodium chloride, 13.61 g of potassium dihydrogen phosphate and 83.35 g of 1 M sodium hydroxide solution are made up to 1 litre with Millipore water and then diluted 1:10. Adjust with phosphoric acid to pH=7.4.
pH 10: Fluka buffer, Order No. 33649 (4.77 g Borax, 0.73 g sodium hydroxide).
15 μl portions of the sample solution are analysed by HPLC at different times (0 h, 1 h, 2 h, 4 h and 24 h) at 37° C. The peak areas in percentage are used for quantification.
The ratios of the peak area (F) at different times in relation to the peak area at the starting point are shown in Table 8A for representative examples: […]

[1] = Tris buffer pH 8.5, pH 8.5, aqueous buffer, pH = 8.5 Tris buffer
[2] = citrate buffer pH 4, pH 4, aqueous buffer, pH = 4 citrate buffer
[3] = phosphate buffer pH 7, pH 7, aqueous buffer, pH = 7.0 buffer
[4] = pre-incubation 15 min with 500 units alkaline phosphatase at 37° C., read-out: IC50 with AP
[5] = without alkaline phosphatase, read-out: IC50 without AP

Compound | solubility at 24 h (Solubility; [1]) [µg/mL] | solubility at 24 h (Solubility; [2]) [µg/mL] | solubility at 24 h (Solubility; [3]) [µg/mL] | IC50 (human V1a receptor; [4]) [nM] | IC50 (human V1a receptor; [5]) [nM] | % Test Compound after 4 h [F(t = 4 h) × 100/F(t = 0 h)] (pH stability; buffer pH 4, 37° C.) [%] | % Test Compound after 24 h [F(t = 24 h) × 100/F(t = 0 h)] (pH stability; buffer pH 4, 37° C.) [%] | % Test Compound after 4 h [F(t = 4 h) × 100/F(t = 0 h)] (pH stability; buffer pH 7.4, 37° C.) [%] | % Test Compound after 24 h [F(t = 24 h) × 100/F(t = 0 h)] (pH stability; buffer pH 7.4, 37° C.) [%] | % Test Compound after 4 h [F(t = 4 h) × 100/F(t = 0 h)] (pH stability; buffer pH 10, 37° C.) [%] | % Test Compound after 24 h [F(t = 24 h) × 100/F(t = 0 h)] (pH stability; buffer pH 10, 37° C.) [%] | Solubility (Solubility; pH = 7.0 buffer)
NC(=O)c1nc(Cn2nc(-c3ccc(Cl)cc3)n(C[C@H](OP(=O)(O)O)C(F)(F)F)c2=O)nn1-c1ncccc1C(F)(F)F [Example 1, (2S)-3-[1-({5-Carbamoyl-1-[3-(trifluoromethyl)pyridin-2-yl]-1H-1,2,4-triazol-3-yl}methyl)-3-(4-chlorophenyl)-5-oxo-1,5-dihydro-4H-1,2,4-triazol-4-yl]-1,1,1-trifluoropropan-2-yl Dihydrogen Phosphate] | > 500 | > 500 | > 500 | 1.45 | 13.1 | 100 | 100 | 99 | 99 | 99 | 98 | –
NC(=O)c1nc(Cn2nc(-c3ccc(Cl)cc3)n(C[C@H](O)C(F)(F)F)c2=O)nn1-c1ncccc1C(F)(F)F [Example 4A, 3-({3-(4-Chlorophenyl)-5-oxo-4-[(2S)-3,3,3-trifluoro-2-hydroxypropyl]-4,5-dihydro-1H-1,2,4-triazol-1-yl}methyl)-1-[3-(trifluoromethyl)pyridin-2-yl]-1H-1,2,4-triazole-5-carboxamide] | 6.7 (≈ 11.6 µM) | 8.7 (≈ 15.1 µM) | – | 1.35 | 1.25 | – | – | – | – | – | – | not detectable
NC(=O)c1nc(Cn2nc(-c3ccc(Cl)cc3)n(C[C@H](OP(=O)(O)O)C(F)(F)F)c2=O)nn1-c1ccccc1C(F)(F)F [Example 10, (2S)-3-[1-({5-Carbamoyl-1-[2-(trifluoromethyl)phenyl]-1H-1,2,4-triazol-3-yl}methyl)-3-(4-chlorophenyl)-5-oxo-1,5-dihydro-4H-1,2,4-triazol-4-yl]-1,1,1-trifluoropropan-2-yl Dihydrogen Phosphate] | 479 | 454 | > 500 | 1.3 | 11 | 100 | 100 | 100 | 100 | – | – | –
NC(=O)c1nc(Cn2nc(-c3ccc(Cl)cc3)n(C[C@H](OP(=O)(O)O)C(F)(F)F)c2=O)nn1-c1ncccc1Cl [Example 17, (2S)-3-[1-{[5-Carbamoyl-1-(3-chloropyridin-2-yl)-1H-1,2,4-triazol-3-yl]methyl}-3-(4-chloro-phenyl)-5-oxo-1,5-dihydro-4H-1,2,4-triazol-4-yl]-1,1,1-trifluoropropan-2-yl Dihydrogen Phosphate] | > 500 | > 500 | > 500 | 1.03 | 9.45 | 100 | 100 | 100 | 100 | – | – | –
